# According to ChEMBL document CHEMBL5137012, “The role of the maleimide ring system on the structure-activity relationship of showdomycin” (Eur J Med Chem, 2022):
# The source made the active and inactive calls. The calls are words filed in the database; no cut-off is given here.
# Experiments:
# Homo sapiens [1] = species on record: Homo sapiens; experiment: Substrate activity at human mitochondria RNA polymerase assessed as extension of transcription elongation complex by measuring incorporation into RNA in place of UTP at 100 uM incubated for 1 min in presence of GTP by PAGE analysis
# Escherichia coli [2] = experiment: Inhibition of Escherichia coli RNA polymerase-mediated processive transcription elongation at polythymidine sequence at 2 mM incubated for 5 mins by PAGE analysis
# Saccharomyces cerevisiae [3] = experiment: Substrate activity at Saccharomyces cerevisiae RNA polymerase 2 assessed as extension of transcription elongation complex by measuring incorporation into RNA in place of UTP at 100 uM incubated for 1 min in presence of GTP by PAGE analysis
# Escherichia coli [4] = experiment: Substrate activity at Escherichia coli RNA polymerase assessed as extension of transcription elongation complex by measuring incorporation into RNA in place of UTP at 100 uM incubated for 1 min in presence of GTP by PAGE analysis
# Saccharomyces cerevisiae [5] = experiment: Inhibition of Saccharomyces cerevisiae RNA polymerase 2-mediated processive transcription elongation at polythymidine sequence at 2 mM incubated for 5 mins by PAGE analysis
# Escherichia coli [6] = experiment: Antibacterial activity against Escherichia coli K12 expressing modified luxABCDE genes assessed as reduction in bacterial growth by measuring reduction in bioluminescence at low concentrations measured after 250 mins by microplate reader analysis; format: functional, organism-based
# Escherichia coli [7] = experiment: Antibacterial activity against Escherichia coli K12 expressing modified luxABCDE genes assessed as reduction in bacterial growth by measuring reduction in optical density at 0.002 to 2.5 mM incubated for 16 hrs in presence of uridine at 0.002 to 12.5 mM by microplate reader analysis; format: functional, organism-based; settings: dose 0.002-2.5 mM
# HEK-293T [8] = experiment: Cytotoxicity against HEK293T cells assessed as morphological changes at 125 uM; format: toxicity, cell-based; settings: human
# Escherichia coli [9] = experiment: Bactericidal activity against Escherichia coli K12 expressing modified luxABCDE genes assessed as reduction in luminescence at 2.5 mM incubated for 16 hrs by microplate reader analysis; format: functional, organism-based
# Escherichia coli [10] = experiment: Antibacterial activity against Escherichia coli K12 expressing modified luxABCDE genes assessed as reduction in bacterial growth by measuring reduction in bioluminescence at 0.002 to 2.5 mM incubated for 16 hrs in presence of uridine at 0.002 to 12.5 mM by microplate reader analysis; format: functional, organism-based; settings: dose 0.002-2.5 mM
# HEK-293T [11] = experiment: Cytotoxicity against HEK293T cells assessed as reduction in viable cells at 500 uM incubated for 24 hrs by CCK-8 assay; format: toxicity, cell-based; settings: human
# Escherichia coli [12] = experiment: Antibacterial activity against Escherichia coli K12 expressing modified luxABCDE genes assessed as reduction in bacterial growth by measuring reduction in bioluminescence at 0.002 to 2.5 mM incubated for 16 hrs by microplate reader analysis; format: functional, organism-based; settings: dose 0.002-2.5 mM
# Escherichia coli [13] = experiment: Antibacterial activity against Escherichia coli K12 expressing modified luxABCDE genes assessed as reduction in bacterial growth by measuring reduction in optical density at 0.002 to 2.5 mM incubated for 16 hrs by microplate reader analysis; format: functional, organism-based; settings: dose 0.002-2.5 mM
# HEK-293T [14] = experiment: Cytotoxicity against HEK293T cells at 125 uM incubated for 24 hrs by LDH assay; format: toxicity, cell-based; settings: human
# Homo sapiens [15] = species on record: Homo sapiens; experiment: Substrate activity at human mitochondria RNA polymerase assessed as one nucleotide extension of transcription elongation complex by measuring incorporation of 4-ethylthioshowdomycin-5'-monophosphate into RNA at 100 uM incubated for 1 min by ATTO680 fluorophore based PAGE analysis
# Escherichia coli [16] = experiment: Substrate activity at Escherichia coli RNA polymerase assessed as one nucleotide extension of transcription elongation complex by measuring incorporation of 4-ethylthioshowdomycin-5'-monophosphate into RNA at 100 uM incubated for 1 min by ATTO680 fluorophore based PAGE analysis
# Homo sapiens [17] = species on record: Homo sapiens; experiment: Substrate activity at human mitochondria RNA polymerase assessed as two nucleotide extension of transcription elongation complex by measuring incorporation of 4-ethylthioshowdomycin-5'-monophosphate into RNA at 100 uM incubated for 1 min in presence of GTP by ATTO680 fluorophore based PAGE analysis
# Escherichia coli [18] = experiment: Antibacterial activity against Escherichia coli K12 expressing modified luxABCDE genes assessed as reduction in bacterial growth by measuring reduction in optical density at 40 uM incubated for 16 hrs by microplate reader analysis; format: functional, organism-based
# Escherichia coli [19] = experiment: Antibacterial activity against Escherichia coli K12 expressing modified luxABCDE genes assessed as reduction in bacterial growth by measuring reduction in bioluminescence at 40 uM incubated for 16 hrs by microplate reader analysis; format: functional, organism-based
# HEK-293T [20] = experiment: Cytotoxicity against HEK293T cells assessed as morphological changes at 30 uM; format: toxicity, cell-based; settings: human
# HEK-293T [21] = experiment: Cytotoxicity against HEK293T cells assessed as reduction in viable cells at 125 uM incubated for 24 hrs by CCK-8 assay; format: toxicity, cell-based; settings: human
# HEK-293T [22] = experiment: Cytotoxicity against HEK293T cells at 30 uM incubated for 24 hrs by LDH assay; format: toxicity, cell-based; settings: human
# Escherichia coli [23] = experiment: Bactericidal activity against Escherichia coli K12 expressing modified luxABCDE genes assessed as reduction in luminescence at 0.625 mM incubated for 16 hrs by microplate reader analysis; format: functional, organism-based
# Escherichia coli [24] = experiment: Antibacterial activity against Escherichia coli K12 expressing modified luxABCDE genes assessed as reduction in bacterial growth by measuring reduction in optical density incubated for 16 hrs by microplate reader analysis; format: functional, organism-based; settings: DDE = dose-dependent effect
# Escherichia coli [25] = experiment: Antibacterial activity against Escherichia coli K12 expressing modified luxABCDE genes assessed as reduction in bacterial growth by measuring reduction in bioluminescence incubated for 16 hrs by microplate reader analysis; format: functional, organism-based; settings: DDE = dose-dependent effect
smiles,measurement,setting,value
O=C1NC(=O)C([C@@H]2O[C@H](COP(=O)(O)OP(=O)(O)OP(=O)(O)O)[C@@H](O)[C@H]2O)=C1Br,Activity,Homo sapiens [1],Active
same,inhibition,Escherichia coli [2],Active
same,Activity,Saccharomyces cerevisiae [3],Active
same,Activity,Escherichia coli [4],Active
same,inhibition,Saccharomyces cerevisiae [5],Active
CCSC1=C([C@@H]2O[C@H](CO)[C@@H](O)[C@H]2O)C(=O)NC1=O,Activity,Escherichia coli [6],Active
same,Activity,Escherichia coli [7],Active
same,Activity,HEK-293T [8],Toxic
same,Activity,Escherichia coli [9],Active
same,Activity,Escherichia coli [10],Active
same,Activity,HEK-293T [11],Toxic
same,Activity,Escherichia coli [12],Active
same,Activity,Escherichia coli [13],Active
same,Activity,HEK-293T [14],Toxic
C[C@@H](SC1=C([C@@H]2O[C@H](COP(=O)(O)OP(=O)(O)OP(=O)(O)O)[C@@H](O)[C@H]2O)C(=O)NC1=O)C(=O)O,Activity,Escherichia coli [4],Active
C[C@H](SC1=C([C@@H]2O[C@H](COP(=O)(O)OP(=O)(O)OP(=O)(O)O)[C@@H](O)[C@H]2O)C(=O)NC1=O)C(=O)O,Activity,Escherichia coli [4],Active
CCSC1=C([C@@H]2O[C@H](COP(=O)(O)OP(=O)(O)OP(=O)(O)O)[C@@H](O)[C@H]2O)C(=O)NC1=O,Activity,Homo sapiens [15],Active
same,inhibition,Escherichia coli [2],Active
same,Activity,Escherichia coli [16],Active
same,inhibition,Saccharomyces cerevisiae [5],Active
same,Activity,Homo sapiens [17],Active
C[Se]C1=C([C@@H]2O[C@H](COP(=O)(O)OP(=O)(O)OP(=O)(O)O)[C@@H](O)[C@H]2O)C(=O)NC1=O,Activity,Homo sapiens [1],Active
same,inhibition,Escherichia coli [2],Active
same,Activity,Saccharomyces cerevisiae [3],Active
same,Activity,Escherichia coli [4],Active
same,inhibition,Saccharomyces cerevisiae [5],Active
CN[C@@H]1[C@@H](O[C@H]2O[C@H](CO)[C@@H](N)[C@H](O)[C@H]2O)O[C@H]2C[C@@H](N)[C@@H](O[C@H]3[C@H](O)[C@@H](O)[C@H](N)C[C@@H]3N)O[C@@H]2[C@@H]1O,Activity,Escherichia coli [18],Active
same,Activity,Escherichia coli [19],Active
O=C1C=C([C@@H]2O[C@H](CO)[C@@H](O)[C@H]2O)C(=O)N1,Activity,HEK-293T [20],Toxic
same,Activity,Escherichia coli [12],Active
same,Activity,HEK-293T [21],Toxic
same,Activity,Escherichia coli [13],Active
same,Activity,HEK-293T [22],Toxic
same,Activity,Escherichia coli [23],Active
NC[C@H]1O[C@H](O[C@H]2[C@H](O)[C@@H](O[C@H]3O[C@H](CO)[C@@H](O)[C@H](N)[C@H]3O)[C@H](N)C[C@@H]2N)[C@H](O)[C@@H](O)[C@@H]1O,Activity,Escherichia coli [18],Active
same,Activity,Escherichia coli [19],Active
CSC1=C([C@@H]2O[C@H](COP(=O)(O)OP(=O)(O)OP(=O)(O)O)[C@@H](O)[C@H]2O)C(=O)NC1=O,Activity,Homo sapiens [1],Active
same,inhibition,Escherichia coli [2],Active
same,Activity,Saccharomyces cerevisiae [3],Active
same,Activity,Escherichia coli [4],Active
same,inhibition,Saccharomyces cerevisiae [5],Active
N=C(N)NCC(=O)N(O)C(CCC(N)=O)C(=O)NC[C@H]1O[C@@H](c2c[nH]c(=O)[nH]c2=O)[C@H](O)[C@@H]1O (stereo partly drawn),Activity,Escherichia coli [24],Dde
same,Activity,Escherichia coli [25],Dde
